Literature values, collected in PMC5007443, “TNIK inhibition abrogates colorectal cancer stemness” (Nature Communications, 2016).

How the values were obtained:
[1] = system: lung cancer cells; design: method as in PMID 25337707; details: cited from earlier work
[2] = system: TNIK; design: method as in PMID 23232060; details: read-out: IC50, enzyme activity of TNIK; cited from earlier work
[3] = system: Wnt signal; design: method as in PMID 23232060; details: read-out: IC50, Wnt signal-inhibitory effects; cited from earlier work

Compound	EMT of lung cancer cells induced by TGF-β1 [1]	IC50 [2] [nM]	IC50 [3] [nM]
Cc1ccc(C(=O)Nc2sc(Nc3ccccc3)nc2C(N)=O)cc1 [NCB-0005]	inhibit		
COc1ccc(C#N)cc1-c1ccnc(Nc2ccc(N3CCOCC3)c(OC)c2)c1 [Compound 9, 4-methoxy-3-(2-(3-methoxy-4-morpholinophenylamino)pyridin-4-yl)benzonitrile]		8	> 2000
